In PubChem BioAssay (NCI):
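48-hour exposure; five concentrations; linearly interpolated endpoints. GI50: concentration for 50% inhibition of growth. Definition used: TGI = concentration required for complete inhibition of growth.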

What was measured:
Experiment in all cases: NCI-60 cell line screen, 48 h
CCRF-CEM leukemia = system: CCRF-CEM leukemia
KM12 colon = system: KM12 colon
MALME-3M melanoma = system: MALME-3M melanoma
NCI-H226 lung = system: NCI-H226 lung
NCI-H460 lung = system: NCI-H460 lung
OVCAR-4 ovarian = system: OVCAR-4 ovarian
RPMI-8226 leukemia = system: RPMI-8226 leukemia
SK-MEL-28 melanoma = system: SK-MEL-28 melanoma
SK-OV-3 ovarian = system: SK-OV-3 ovarian
TK-10 renal = system: TK-10 renal

Compound	TGI (CCRF-CEM leukemia)	TGI (KM12 colon)	TGI (MALME-3M melanoma)	TGI (NCI-H226 lung)	TGI (NCI-H460 lung)	TGI (OVCAR-4 ovarian)	TGI (RPMI-8226 leukemia)	TGI (SK-MEL-28 melanoma)	TGI (SK-OV-3 ovarian)	TGI (TK-10 renal)	GI50 (CCRF-CEM leukemia)	GI50 (KM12 colon)	GI50 (MALME-3M melanoma)	GI50 (NCI-H226 lung)	GI50 (NCI-H460 lung)	GI50 (OVCAR-4 ovarian)	GI50 (RPMI-8226 leukemia)	GI50 (SK-MEL-28 melanoma)	GI50 (SK-OV-3 ovarian)	GI50 (TK-10 renal)
CN1CCCN(C)C1c1cc([N+](=O)[O-])ccc1O	48.5 µM	> 100 µM	63.7 µM	82.5 µM	> 100 µM	> 100 µM	> 100 µM	82.3 µM	> 100 µM	> 100 µM										
C#CC1(O)C(COP(=O)(O)OC2CC(n3cc(F)c(=O)[nH]c3=O)OC2CO)OC(n2ccc(N)nc2=O)C1O (centres undefined)		> 29 µM	5.07 µM	> 36.1 µM	> 32.1 µM	8.49 µM		1.72 µM	> 100 µM	> 42.8 µM	< 0.0129 µM	< 0.01 µM	0.117 µM	0.0614 µM	< 0.01 µM	0.143 µM	< 0.01 µM	0.0474 µM	0.0735 µM	0.0273 µM
O=c1cc2ccccc2nn1Cc1ccccc1Cl	> 100 µM	> 100 µM	> 100 µM	> 100 µM	> 100 µM	> 100 µM	> 100 µM	> 100 µM	> 100 µM	> 100 µM										
CC1(C)OC(=O)C=C([O-])O1.CC1(C)OC(=O)C=C([O-])O1.O=S(=O)([O-])c1ccc([O-])c2ncccc12.O=S(=O)([O-])c1ccc([O-])c2ncccc12.[Ti+4]	> 100 µM	> 100 µM	> 100 µM	> 100 µM	> 100 µM	> 100 µM	> 100 µM	> 100 µM	> 100 µM	> 100 µM	69.8 µM	> 100 µM	> 100 µM	> 100 µM	41.8 µM	> 100 µM	> 100 µM	> 100 µM	> 100 µM	> 100 µM
CC(C)c1ccc(C(=O)Nc2sc3c(c2C#N)CCC(=O)C3)cc1	> 100 µM	7.83 µM	3.82 µM	16.3 µM	> 35.9 µM	1.36 µM		9.84 µM	8.15 µM	5.47 µM	0.189 µM	0.413 µM	1.17 µM	3.88 µM	1.14 µM	0.294 µM	0.152 µM	0.754 µM	2.39 µM	0.613 µM
Cn1ncc2c(N)nc(N3CCCCC3)nc21	85.7 µM	82.8 µM	67.9 µM	48.3 µM	> 100 µM	> 100 µM	> 100 µM	> 100 µM	> 100 µM	77.8 µM	25.7 µM	26.2 µM	20.8 µM	22.1 µM	42.5 µM	27.2 µM	33.1 µM	24.1 µM	22.5 µM	22.9 µM
CC(C)c1ccc(/C(C(=O)O)=C(\O)C(=O)O)cc1	> 100 µM	> 100 µM	> 100 µM	> 100 µM	> 100 µM	> 100 µM	> 100 µM	> 100 µM	> 100 µM	> 100 µM										
COCCOC(=O)NC(=O)Nc1ccc(/C(=N/O)c2ccc(Cl)cc2)cc1	28.1 µM	29.1 µM	33.1 µM	39.4 µM	13.7 µM	54.2 µM	19 µM	48 µM	25.1 µM	> 82.6 µM	0.0989 µM	0.0996 µM	11.9 µM	1.14 µM	0.129 µM	0.385 µM	0.129 µM	11.5 µM	0.118 µM	16.5 µM
Cc1nc2sc(C(=O)Nc3cccc4ccccc34)c(N)c2cc1C(=O)c1ccccc1	> 50 µM	> 50 µM	> 50 µM	> 50 µM	6.32 µM	> 50 µM	> 50 µM	> 50 µM	> 50 µM	> 50 µM	1.66 µM	1.86 µM	3.86 µM	7.71 µM	0.727 µM	3.21 µM	2.46 µM	4.95 µM	1.28 µM	> 50 µM
COc1ccc(/C=C/c2nc(NCCCN(C)C)c3ccccc3n2)cc1	4.53 µM	3.13 µM	3.18 µM	30.7 µM	4.7 µM	5.58 µM	4.64 µM	9 µM	6.3 µM	22 µM	2.02 µM	1.73 µM	1.62 µM	12 µM	2.19 µM	2.07 µM	1.78 µM	4.57 µM	2.51 µM	6.59 µM
COc1ccc(-c2cc(/C=C3\C(=O)Nc4ccc(Cl)cc43)[nH]n2)cc1	16.6 µM	19.6 µM	20 µM	28.1 µM	13 µM	17.3 µM	18 µM	19.5 µM	13.8 µM	20.7 µM	3.32 µM	3.96 µM	6.85 µM	12.1 µM	3.81 µM	4.31 µM	4.04 µM	6.6 µM	4.07 µM	8.8 µM
COc1cc(/C=C\[N+](=O)[O-])ccc1OCc1ccccc1	11.5 µM	10.8 µM	9.38 µM	5.47 µM	15.9 µM	13.1 µM	2.73 µM	4.5 µM	15.2 µM	5.27 µM	3.13 µM	3.06 µM	2.54 µM	2.26 µM	3.98 µM	3.07 µM	0.43 µM	2.08 µM	4.65 µM	1.93 µM
Cn1c(=O)nc2n(-c3cccc(F)c3)c3ccccc3nc-2c1=O	56.7 µM	> 100 µM	28.2 µM	> 100 µM	67.1 µM	27.8 µM	72.6 µM		> 100 µM	> 100 µM										
NC1CCN(c2nc(Nc3cccc(C(F)(F)F)c3)c3c(=O)[nH]ccc3n2)CC1	6.88 µM		3.83 µM	3.7 µM	2.8 µM	3.84 µM	4.84 µM	3.32 µM	2.39 µM	2.72 µM	1.26 µM		1.88 µM	1.86 µM	1.26 µM	1.53 µM	1.91 µM	1.82 µM	1.08 µM	1.3 µM
